From PubChem BioAssay (NCI)
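Cells were grown in 96-well plates and exposed to each compound for 48 hours at five concentrations; endpoints were interpolated linearly between bracketing concentrations, or set to the highest concentration if not reached. TGI: total growth inhibition.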

Tests used:
Assay in all cases: growth of human tumour cells (NCI), 48 h
[1] = system: U251 CNS
[2] = system: LOX IMVI melanoma
[3] = system: HOP-62 NSCLC
[4] = system: NCI-H226 lung
[5] = system: HS 578T breast
[6] = system: K-562 leukemia
[7] = system: HOP-92 NSCLC
[8] = system: SW-620 colon
[9] = system: HL-60(TB) leukemia
[10] = system: MALME-3M melanoma

SMILES	TGI [1]	TGI [2]	TGI [3]	TGI [4]	TGI [5]	TGI [6]	TGI [7]	TGI [8]	TGI [9]	TGI [10]
O=[N+]([O-])c1ccc2[nH]c(O)c(N=NC(=S)Nc3ccccc3)c2c1	16.6 µM	24.6 µM	21.8 µM	65.4 µM	> 100 µM	> 100 µM	21.7 µM	> 100 µM	36.3 µM	–
Nc1cc(N)c(N=Nc2cccc3c(S(=O)(=O)O)cccc23)cc1N=Nc1cc([N+](=O)[O-])ccc1O	> 100 µM	37.1 µM	> 100 µM	–	> 100 µM	> 100 µM	98.7 µM	> 100 µM	–	64 µM
C=C(CC)C[C@@H]1C[C@]2(C(=O)OC)c3[nH]c4ccccc4c3CCN2C1=O	40.8 µM	33.5 µM	34 µM	–	41.1 µM	58.1 µM	38.1 µM	35.9 µM	82.5 µM	72.5 µM
COC(=O)[C@@H]1[C@H](O)CC[C@H]2[C@@]1(C)CC[C@@H](C)[C@]2(COC(C)=O)CC(=O)c1ccoc1	> 50 µM	> 50 µM	–	> 50 µM	> 50 µM	–	> 50 µM	> 50 µM	> 50 µM	–
COc1ccccc1Cn1[nH]c(=O)c2cc([N+](=O)[O-])ccc21	–	> 100 µM	> 100 µM	> 100 µM	> 100 µM	> 100 µM	93.4 µM	> 100 µM	> 100 µM	> 100 µM
CC(=O)Oc1cc(S(=O)(=O)Nc2n[nH]c(N)n2)c(S)cc1Cl	> 100 µM	> 100 µM	> 100 µM	–	> 100 µM	> 100 µM	> 100 µM	> 100 µM	> 100 µM	> 100 µM
CN(C)C(=O)Oc1ccc(C(=S)Nc2ccccc2)cc1Br	> 100 µM	45.8 µM	> 100 µM	–	> 100 µM	> 100 µM	–	> 100 µM	39.6 µM	> 100 µM
CC(C)c1cccc(C(C)C)c1NC(=O)C(=O)C1SC(=S)NC1=O (configuration not stated)	> 100 µM	> 100 µM	> 100 µM	> 100 µM	–	> 100 µM	> 100 µM	> 100 µM	> 100 µM	> 100 µM
CC1=C(C(=O)NC(C)(C)C)CC(C(=O)NC(C)(C)C)C(C)N1 (configuration not stated)	> 100 µM	> 100 µM	> 100 µM	> 100 µM	> 100 µM	> 100 µM	> 100 µM	> 100 µM	> 100 µM	–
O=C(Nc1ccc(S(=O)(=O)Nc2ncccn2)cc1)c1c2ccccc2nc2ccccc12	> 100 µM	> 100 µM	> 100 µM	> 100 µM	–	> 100 µM	> 100 µM	> 100 µM	> 100 µM	> 100 µM
Cc1ccccc1NC(=O)CSc1nnc(Cc2ccccc2)o1	> 100 µM	> 100 µM	> 100 µM	> 100 µM	–	> 100 µM	–	–	–	> 100 µM
